Series [1] relates to NZOV11 human ovarian cell line. Kind of series: restoration of p53 function: G1-phase arrest after irradiation plus paclitaxel, flow cytometry. The format is cell-based. Conditions: 9 Gray plus 200 nM paclitaxel, 24 hours; for Activity: NZOV11, p53 mutated at position 248 (arginine to glutamine); for AC50: NZOV11, p53 mutated at position 248, G1 proportion restored to (a+b)/2, read-out: AC-50% (concentration of drug that restores the G1-phase proportion of the cultured cells). The text has this: Description of the in vitro assay: This protocol employs a novel assay that was used to measure the restoration of one of the principal p53 functions, that of regulating entry into S-phase (DNA replication) of the cell division cycle. Without being bound to any specific understanding, it is thought that these compounds may act to restore the known ability of p53 to induce cell cycle arrest in the G1-phase of the cell division cycle through induction of the p21^WAF1 protein in response to DNA damage (Levine. Cell 1997, 88, 323-31). Logarithmic phase cultures of tumour cell lines are irradiated in the presence of an inhibitor of cell division (to prevent the generation of G1-phase cells by cell division), and then allowed to grow for approximately one cell division time. If p53 function is present it will inhibit the progression of cells from the G1-phase to the S-phase of the cell division cycle, as a consequence of induction of the p21^WAF1 protein. If p53 function is absent there will be little or no cells in the G1-phase of the cell division cycle at the end of the incubation. […] The ability of an individual drug to restore p53 function is therefore evaluated against a positive control of non-irradiated cells and a negative control of cells that have been treated with a combination of radiation and a mitotic inhibitor.
Logarithmic phase cultures of tumour cell lines are plated in insulin-transferrin-selenite growth medium on 100 mm plates (10 ml) at a density of 10^4 cells/ml, using the standard cell culture conditions that are established in this laboratory (Marshall et al., Oncol Res 1994, 5, 301-9). The test compound is added to some cultures at a range of concentrations up to 20 μM. The anticancer drug paclitaxel is used as an inhibitor of cell division and is added to some cultures at a concentration of 200 nM. Cultures are irradiated where indicated at a dose of 9 Gray. Following irradiation, cultures are incubated at 37° C. for 24 hours, the cells harvested, washed once and fixed overnight in 100% methanol at −20° C. at a density of 5×10^5 cells/ml. Cells are rehydrated by washing in phosphate buffered saline with 2% foetal bovine serum, then incubated with RNAase A (0.25 mg/ml) at 37° C. for 30 min. Cells are then washed and resuspended in phosphate buffered saline containing 0.1 mM EDTA and 25 μg/ml propidium iodide. Cycle analysis (red fluorescence) is performed using a Becton Dickinson (Mountain View, Calif.) FACScan flow cytometer. Cellular DNA content profiles are analyzed using Modfit software (Verity Software House, Inc.) to provide estimates of the proportions of G1-, S- and G2/M-phase cells, and of other cellular material. By comparing the effects of irradiation and addition of paclitaxel separately, the assay provides evidence of non-specific inhibition of cell growth from changes in cell number, cell cycle distribution, and production of cellular debris.
Using cell cultures that have been both irradiated and treated with paclitaxel, the proportion of cells in G1-phase is plotted against the concentration of added test compound. Depending on the cell line, the proportion of G1-phase cells in the absence of added compound is generally less than 5% (defined as a). […] The 50%-activating concentration (AC-50%) of the test compound is defined as the concentration that restores the G1-phase proportion of the cultured cells to a value of (a+b)/2.
The NZOV11 human ovarian cell line, previously developed in this laboratory according to methods that have previously been published (Baguley B C et al., Eur J Cancer 1998, 34, 1086), was used in these studies to compare the activity of each of the drugs.
For orientation: In flow cytometry, cells or beads pass a laser one at a time.

The subject of series [2] is Saos-2 osteosarcoma cells. The settings on record: cited from earlier work.
In series [3] the test system is A375.S2 melanoma (mutated at p53 position 249). Conditions: A375.S2 melanoma cells in nude mice; cited from earlier work.
The subject of series [4] is DLD-1 colon carcinoma (mutated at p53 position 241). The settings on record: DLD-1 colon carcinoma cells in nude mice; cited from earlier work.
The conditions of series [5]: background statement; cited from earlier work.
Series [6] deals with other cell lines with mutations in other parts of the p53 protein. Kind of series: restoration of p53 function in other cell lines with other p53 mutations. The format is cell-based. Conditions: a number of other cell lines with mutations in other parts of the p53 protein.
Another series has as its system C57Bl mice. Kind of series: maximum tolerated intraperitoneal single dose and signs of toxicity in mice. The format is in vivo. The procedure: (§1) Pharmacological studies in mice: A further consideration in this project is whether effective plasma concentrations can be achieved in vivo without significant side-effects. C57Bl mice were maintained under standard conditions in accordance with institutional ethical guidelines. The maximum tolerated intraperitoneal single dose of compound 3 was determined by administering different doses of drug to mice and found to be 100 mg/kg. […] An effective analytical procedure for the determination of concentrations of 3 in mouse plasma was developed, using high performance liquid chromatography and detection by ion trap mass spectrometry. The method is broadly applicable to compounds in the series. Blood samples were obtained under terminal anesthesia either before or at 1, 2 and 4 hours after a single intraperitoneal dose of 100 mg/kg. Plasma was prepared and analyzed using the method developed above.

A short description of series [7]: plasma concentrations after a single intraperitoneal dose. The format is in vivo. The settings on record: C57Bl mice, single intraperitoneal 100 mg/kg, 1, 2 and 4 hours, FIG. 1. Here is the method:
Illustrates the in vivo plasma concentrations of compound 3 over time following a single intraperitoneal administration (100 mg/kg) to C57Bl mice.
as §1

Series [8] concerns NZM4 human tumour xenografts. Kind of series: growth of NZM4 human tumour xenografts in immunodeficient (rag 1) mice. Format: in vivo. The procedure:
Illustrates the growth curves for immunodeficient mice with NZM4 human tumour xenografts. Mice were either untreated (closed circles), treated with 2 Gray radiation alone (open circles) or treated with radiation combined with compound 3 (100 mg/kg per dose).
In vivo estimation of ability to restore p53 function: A further consideration in this project is to determine whether members of this series have the ability to inhibit the growth of human cell lines that contain mutant p53 protein. This consideration was addressed with the use of compound 3, for which in vitro evidence has been obtained for ability to restore p53 function (Table 2) and for which pharmacological evidence has been obtained for biologically relevant plasma concentrations in vivo in the absence of significant side-effects (FIG. 1). Immunodeficient (rag 1) mice were maintained under standard conditions in accordance with institutional ethical guidelines. Cells from the NZM4 cell line (Marshall E S et al., Eur J Cancer 1994; 30A: 1370-1376) were grown in culture and harvested. Mice were injected subcutaneously with 10^7 cells and tumours allowed to grow to a diameter of approximately 5 mm. Mice received whole-body irradiation of 2 Gray and were then administered compound 3 by intraperitoneal injection immediately after, and 1 and 2 days following, irradiation. […] Control animals received no treatment or were irradiated in the absence of drug administration.
Tumour growth was recorded three times weekly by measuring the minor and major dimensions of the tumour and tumour volumes were calculated as 0.52 times (minor dimension)^2 times (major dimension). Tumour volumes were normalized to the initial volume and plotted versus time. FIG. 2 illustrates the growth curves for immunodeficient mice with NZM4 human tumour xenografts. Mice were either untreated (closed circles), treated with 2 Gray radiation alone (open circles) or treated with radiation combined with compound 3 (100 mg/kg per dose). […]

The structures appear in SMILES notation. Read-outs that look alike come from different tables or passages of the source.

As for `CN(C)CCCNc1nc(-c2cc3ccccc3o2)nc2ccc(N)cc12.Cl.Cl` [Compound 30], in [1], the result was Active.
In the case of `CN(C)CCCNc1nc(-c2cc3ccccc3o2)nc2ccc(N)cc12.Cl.Cl` [Compound 30, N^1-[2-(1-Benzofuran-2-yl)-N^4-[3-(dimethylamino)propyl]-4,6-quinazolinediaminedihydrochloride], the AC50 in series [1] amounted to 9.5 µM.
`Cc1ccc2c(N(C)CCC(C)N)nc(-c3cc4ccccc4o3)nc2c1C.Cl.Cl` (centres unmarked) [Compound 58, N^1-[2-(1-Benzofuran-2-yl)-7,8-dimethyl-4-quinazolinyl]-3,N-dimethyl-1,3-propanediamine dihydrochloride]: in [1] (Homo sapiens), the AC50 is 2.7 µM. In series [1], the outcome was Active.
The matching figures for `CN(C)CCCNc1cc(-c2cc3ccccc3o2)nc2ccccc12.Cl.Cl` [Compound 80, N^1-[2-(1-benzofuran-2-yl)-4-quinolinyl]-N^3,N^3-dimethyl-1,3-propanediamine dihydrochloride]: 15 µM and “Active”.
On the same counts, the results for `CN(C)CCCNc1nc(-c2cc3ccccc3o2)nc2cc(C(F)(F)F)ccc12.Cl.Cl` [Compound 35, N^1-[2-(1-Benzofuran-2-yl)-7-(trifluoromethyl)-4-quinazolinyl]-N^3,N^3-dimethyl-1,3-propanediamine dihydrochloride] are 3.4 µM and “Active”.
On the same counts, the results for `Cc1ccc2c(NCCC3CCCN3C)nc(-c3cc4ccccc4o3)nc2c1C.Cl.Cl` (centres unmarked) [Compound 79, 2-(1-Benzofuran-2-yl)-7,8-dimethyl-N-[2-(1-methyl-2-pyrrolidinyl)ethyl]-4-quinazolinamine dihydrochloride] are 7.5 µM and “Active”.
As for `COc1ccc(/C=C/c2nc(NCCCN(C)C)c3ccccc3n2)cc1` [(i)], the “ability of mutant p53 protein to induce the cellular p21 gene” value in series [2] (Saos-2 osteosarcoma cells) is “restored the ability of mutant p53 protein to induce the cellular p21 gene”. Further, the potency result in series [2] (background statement, no test named) is given as “not very potent”. Further, the “suppression of tumour growth” value in series [3] and in series [4] was “able to suppress the growth” each time. For the same compound, the chemical stability entry in [5] was “chemically unstable”.
For the compound `CN(C)CCCNc1nc(-c2cc3ccccc3o2)nc2ccccc12.Cl.Cl` [Compound 3, N^1-[2-(1-benzofuran-2-yl)-4-quinazolinyl]-N^3,N^3-dimethyl-1,3-propanediamine dihydrochloride], in series [1] (Homo sapiens), the AC50 worked out at 8.5 µM. Besides, the outcome in series [1] was Active. In series [6], the “ability to restore p53 function” value is on record as “able to restore p53 function”. In the series on C57Bl mice (single intraperitoneal dose), the “maximum tolerated intraperitoneal single dose” value came to 100 mg/kg. The “signs of toxicity (weight loss, ruffling of fur, behavioral changes)” value with C57Bl mice (single intraperitoneal dose of 100 mg/kg) is reported as “No signs of toxicity”. In addition, the achieved plasma concentrations entry in series [7] is “comparable to the AC-50% value”. For the same compound, the “time to reach three times the initial tumour volume” value in series [8] (2 Gray radiation together with compound, 100 mg/kg per dose intraperitoneal on days 0, 1 and 2 after irradiation) is on record as 17 days. In addition, the signs of toxicity entry in series [8] (rag 1 mice, 2 Gray whole-body irradiation plus intraperitoneal compound immediately after and 1 and 2 days after) was “No signs of toxicity”. In [8] (rag1 mice, drug alone at the same schedule, no irradiation), the “tumour growth rate with drug alone compared with mice not treated with drug” value is listed as “identical rate”.
As to `Cc1cccc2c(NCCCN(C)C)nc(-c3cc4ccccc4o3)nc12.Cl.Cl` [Compound 45, N^1-[2-(1-Benzofuran-2-yl)-8-methyl-4-quinazolinyl]-N^3,N^3-dimethyl-1,3-propanediamine dihydrochloride], the AC50 in series [1] (Homo sapiens) came to 5.8 µM. Besides, the result in series [1] was Active.
On the same counts, the results for `Cc1c(-c2nc(NCCCN(C)C)c3ccccc3n2)oc2ccccc12.Cl.Cl` [Compound 60, N^1,N^1-Dimethyl-N^3-[2-(3-methyl-1-benzofuran-2-yl)-4-quinazolinyl]-1,3-propanediamine dihydrochloride] are 18 µM and “Active”.
On the same counts, the results for `CN(C)CCCNc1nc(-c2cc3ccccc3s2)nc2ccccc12.Cl.Cl` [Compound 75, N^1-[2-(1-Benzothien-2-yl)-4-quinazolinyl]-N^3,N^3-dimethyl-1,3-propanediamine dihydrochloride] are 8 µM and “Active”.
On the same counts, the results for `CN(C)CCCNc1nc(-c2cc3ccccc3o2)nc2ccc([N+](=O)[O-])cc12` [Compound 29, N^1-[2-(1-Benzofuran-2-yl)-6-nitro-4-quinazolinyl]-N^3,N^3-dimethyl-1,3-propanediamine] are 12 µM and “Active”.

Values taken from US20090318479A1, “SUBSTITUTED RING FUSED AZINES AND THEIR USE IN CANCER THERAPY” (Auckland Uniservices Limited, priority 2006, published 2009).
